Source: patent US12173291B2, “Unnatural base pair compositions and methods of use” (THE SCRIPPS RESEARCH INSTITUTE, priority 2017, dated 2024)

Experiments:
OneTaq DNA Polymerase = test: PCR amplification of long DNAs (overlap assembly PCR); format: biochemical; settings: presence of dTPT3TP in PCR
Description: The UBP knock-in cassette for the arsB locus (FIGS. 7A-7C) was produced through overlapping PCR of a 150-bp dsDNA containing a UBP and the kanamycin resistance gene of pKD13. The 150 bp DNA was produced with a 50-μL PCR using the same reaction solution conditions as above and the following temperature regime (time in mm:ss): [98° C. 02:00|5×(98° C. 00:10|50° C. 00:10|68° C. 04:00)|15×(98° C. 00:10|58° C. 00:10|68° C. 04:00)]. The kanamycin resistance gene amplicon was produced through PCR amplification off pKD13 using Q5 DNA polymerase as per manufacturer recommendations. The amplification of long DNAs (approximately 200 bp or longer) is inhibited by the presence of dTPT3TP. Therefore, the overlap assembly PCR of the UBP containing amplicon and kanamycin resistance gene amplicon was performed on large-scale (2 mL of reaction mixture split into 40 individual 50-μL reactions) with the following solution conditions: UBP containing amplicon (0.02 ng/μL), kanamycin resistance gene amplicon (0.02 ng/μL), primers (1 μM), dTPT3TP (5 μM), dNaMTP (100 μM), dNTPs (200 μM), MgSO4 (1.2 mM), OneTaq DNA Polymerase (0.025 U/μL), and OneTaq Standard Reaction Buffer (1 x). The reactions were subjected to the following temperature regime (time in mm:ss): [98° C. 02:00|5×(98° C. 00:10|50° C. 00:10|68° C. 04:00)|15×(98° C. 00:10|58° C. 00:10|68° C. 04:00)]. […]

E. coli BL21(DE3) SSO = test: Growth of chromosomal UBP integrants with or without dNaMTP and dTPT3TP (doubling time); format: cell-based; settings: ΔrecA-Opt and Pol II+ΔrecA integrants, dNaMTP and dTPT3TP provided together in media
Description: Mid-log phase cells WT-Opt, ΔrecA-Opt, and Pol II^+ΔrecA-Opt SSOs and their corresponding chromosomal UBP integrants (described above) were prepared using the following procedure. Saturated overnight cultures were prepared by inoculation of 2×YT containing chloramphenicol (5 μg/mL), dTPT3TP (37.5 μM), dNaMTP (150 μM), and KPi (50 mM, pH 7) from glycerol stock stabs and overnight growth (approximately 14 h) at 37° C. at 230 RPM. These cells were diluted to 0.03 OD600 in 500 μL 2×YT containing chloramphenicol (5 μg/mL), dTPT3TP (37.5 μM), dNaMTP (150 μM), and KPi (50 mM, pH 7) and grown at 37° C. at 230 RPM. Growth was monitored by OD600. Once cells reached mid-log phase (0.3-0.5 OD600), they were diluted to 0.013 OD600 in 500 μL 2×YT containing chloramphenicol (5 μg/mL), dTPT3TP (37.5 μM), dNaMTP (150 μM), and KPi (50 mM, pH 7) or 2×YT containing chloramphenicol (5 μg/mL) and KPi (50 mM, pH 7) in a 48-well plate and grown at 37° C. at 230 RPM. OD600 was measured every 30 min. This procedure was performed in triplicate for each strain starting from inoculation of overnight cultures.
OD600 data from each experiment was analyzed to obtain a theoretical cell doubling time (FIG. 2B and FIGS. 8A-8B). […]
Where ODi is the OD600 at time (t), OD0 is minimum OD600 value for a given data set, and CGrowth is the growth constant. […] Doubling times (DT) were calculated using the following equation: […]

Row | Structure (SMILES) | Amplification of long DNAs (approximately 200 bp or longer) (OneTaq DNA Polymerase) | Growth defect of chromosomal UBP integrants (E. coli BL21(DE3) SSO)
1 | O=P(O)(O)OP(=O)(O)OP(=O)(O)OC[C@H]1O[C@@H](n2ccc3ccsc3c2=S)C[C@@H]1O [dTPT3TP] | inhibited | almost entirely eliminated
2 | COc1cc2ccccc2cc1[C@H]1C[C@H](O)[C@@H](COP(=O)(O)OP(=O)(O)OP(=O)(O)O)O1 [dNaMTP, triphosphate of dNaM] | – | almost entirely eliminated
